Results as given in ChEMBL document CHEMBL1201862, “PubChem BioAssay data set” (2004).
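Following 48 hours of exposure in 96-well plates, responses at five concentrations were used to interpolate endpoints linearly. GI50 = concentration required for 50% inhibition of growth.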 Activity calls are given as the source filed them. No stated cut-off is given here; in the data, active = GI50 up to about 1.1 µM and inactive = higher.

Legend:
Assay in all cases: NCI tumour cell line growth inhibition, 48 h
OVCAR-8 = system: OVCAR-8
A498 = system: A498
PC-3 = system: PC-3
SNB-75 = system: SNB-75
SR = system: SR
LOX IMVI = system: LOX IMVI
UO-31 = system: UO-31
OVCAR-3 = system: OVCAR-3
HCC 2998 = system: HCC 2998
MDA-MB-435 = system: MDA-MB-435
HOP-62 = system: HOP-62
Malme-3M = system: Malme-3M
ACHN = system: ACHN
A549 = system: A549
CCRF-CEM = system: CCRF-CEM
SW-620 = system: SW-620
T47D = system: T47D
OVCAR-4 = system: OVCAR-4
NCI-H23 = system: NCI-H23
COLO 205 = system: COLO 205
M14 = system: M14
DU-145 = system: DU-145
SK-MEL-2 = system: SK-MEL-2
SN12C = system: SN12C
786-0 = system: 786-0
NCI-H522 = system: NCI-H522
KM12 = system: KM12
MDA-MB-231 = system: MDA-MB-231
SK-OV-3 = system: SK-OV-3
SNB-19 = system: SNB-19
IGROV-1 = system: IGROV-1
NCI/ADR-RES = system: NCI/ADR-RES
Hs-578T = system: Hs-578T
SF-539 = system: SF-539
HL-60 = system: HL-60
UACC-257 = system: UACC-257
NCI-H460 = system: NCI-H460
SK-MEL-5 = system: SK-MEL-5
EKVX = system: EKVX
U-251 = system: U-251
HCT-116 = system: HCT-116
SF-268 = system: SF-268
MCF7 = system: MCF7
K562 = system: K562
MDA-N = system: MDA-N
TK-10 = system: TK-10
CAKI-1 = system: CAKI-1
RPMI-8226 = system: RPMI-8226
BT-549 = system: BT-549
UACC-62 = system: UACC-62
NCI-H226 = system: NCI-H226
HT-29 = system: HT-29
OVCAR-5 = system: OVCAR-5
HCT-15 = system: HCT-15
MOLT-4 = system: MOLT-4
SF-295 = system: SF-295
RXF 393 = system: RXF 393
SK-MEL-28 = system: SK-MEL-28
HOP-92 = system: HOP-92

`NC(=O)c1nnc2ccc(F)cc2c1N` was tested, and the GI50 (OVCAR-8) was > 100 µM (inactive), the GI50 (A498) was > 100 µM (inactive) and the GI50 (PC-3) was > 100 µM (inactive). For the same compound, the GI50 (SNB-75) was > 100 µM (inactive), the GI50 (SR) was > 100 µM (inactive) and the GI50 (LOX IMVI) was 69 µM (inactive). The GI50 (UO-31) was 40.3 µM (inactive), the GI50 (OVCAR-3) was > 100 µM (inactive) and the GI50 (HCC 2998) was > 100 µM (inactive). The GI50 (MDA-MB-435) was > 100 µM (inactive), the GI50 (HOP-62) was > 100 µM (inactive) and the GI50 (Malme-3M) was > 100 µM (inactive). The GI50 (ACHN) was 88.9 µM (inactive), the GI50 (A549) was > 100 µM (inactive) and the GI50 (CCRF-CEM) was > 100 µM (inactive). For the same compound, the GI50 (SW-620) was > 100 µM (inactive), the GI50 (T47D) was > 100 µM (inactive) and the GI50 (OVCAR-4) was > 100 µM (inactive). The GI50 (NCI-H23) was > 100 µM (inactive), the GI50 (COLO 205) was > 100 µM (inactive) and the GI50 (M14) was > 100 µM (inactive). The GI50 (DU-145) was > 100 µM (inactive), the GI50 (SK-MEL-2) was > 100 µM (inactive) and the GI50 (SN12C) was > 100 µM (inactive). The GI50 (786-0) was > 100 µM (inactive), the GI50 (NCI-H522) was 94.6 µM (inactive) and the GI50 (KM12) was > 100 µM (inactive). The GI50 (MDA-MB-231) was > 100 µM (inactive), the GI50 (SK-OV-3) was 87.5 µM (inactive) and the GI50 (SNB-19) was > 100 µM (inactive). For the same compound, the GI50 (IGROV-1) was > 100 µM (inactive), the GI50 (NCI/ADR-RES) was > 100 µM (inactive) and the GI50 (Hs-578T) was > 100 µM (inactive). For the same compound, the GI50 (SF-539) was > 100 µM (inactive), the GI50 (HL-60) was > 100 µM (inactive) and the GI50 (UACC-257) was > 100 µM (inactive). The GI50 (NCI-H460) was > 100 µM (inactive), the GI50 (SK-MEL-5) was > 100 µM (inactive) and the GI50 (EKVX) was > 100 µM (inactive). The GI50 (U-251) was > 100 µM (inactive), the GI50 (HCT-116) was > 100 µM (inactive) and the GI50 (SF-268) was > 100 µM (inactive). The GI50 (MCF7) was > 100 µM (inactive), the GI50 (K562) was > 100 µM (inactive) and the GI50 (MDA-N) was > 100 µM (inactive). The GI50 (TK-10) was 68.7 µM (inactive), the GI50 (CAKI-1) was > 100 µM (inactive) and the GI50 (RPMI-8226) was > 100 µM (inactive). For the same compound, the GI50 (BT-549) was 68.4 µM (inactive), the GI50 (UACC-62) was > 100 µM (inactive) and the GI50 (NCI-H226) was 7.57 µM (inactive). The GI50 (HT-29) was > 100 µM (inactive), the GI50 (OVCAR-5) was 70 µM (inactive) and the GI50 (HCT-15) was > 100 µM. For the same compound, the GI50 (MOLT-4) was > 100 µM (inactive) and the GI50 (SF-295) was > 100 µM (inactive).
With `CCCCCCCCCCCCO[PH](=O)OCCCCCCCCCCCC` the GI50 (OVCAR-8) was > 100 µM (inactive), the GI50 (A498) was > 100 µM (inactive) and the GI50 (PC-3) was > 100 µM (inactive). For the same compound, the GI50 (SNB-75) was > 100 µM (inactive), the GI50 (UO-31) was > 100 µM (inactive) and the GI50 (OVCAR-3) was > 100 µM (inactive). The GI50 (HCC 2998) was > 100 µM (inactive), the GI50 (MDA-MB-435) was > 100 µM (inactive) and the GI50 (HOP-62) was > 100 µM (inactive). For the same compound, the GI50 (Malme-3M) was > 100 µM (inactive), the GI50 (ACHN) was > 100 µM (inactive) and the GI50 (A549) was > 100 µM (inactive). For the same compound, the GI50 (CCRF-CEM) was > 100 µM (inactive), the GI50 (SW-620) was > 100 µM (inactive) and the GI50 (T47D) was > 100 µM (inactive). For the same compound, the GI50 (OVCAR-4) was > 100 µM (inactive), the GI50 (NCI-H23) was > 100 µM (inactive) and the GI50 (COLO 205) was > 100 µM (inactive). For the same compound, the GI50 (M14) was > 100 µM (inactive), the GI50 (DU-145) was > 100 µM (inactive) and the GI50 (SK-MEL-2) was > 100 µM (inactive). For the same compound, the GI50 (SN12C) was > 100 µM (inactive), the GI50 (786-0) was > 100 µM (inactive) and the GI50 (NCI-H522) was > 100 µM (inactive). For the same compound, the GI50 (KM12) was 32.2 µM (inactive), the GI50 (MDA-MB-231) was > 100 µM (inactive) and the GI50 (SK-OV-3) was > 100 µM (inactive). For the same compound, the GI50 (SNB-19) was > 100 µM (inactive), the GI50 (IGROV-1) was > 100 µM (inactive) and the GI50 (NCI/ADR-RES) was > 100 µM (inactive). For the same compound, the GI50 (Hs-578T) was > 100 µM (inactive), the GI50 (SF-539) was > 100 µM (inactive) and the GI50 (HL-60) was > 100 µM (inactive). The GI50 (UACC-257) was 28.3 µM (inactive), the GI50 (NCI-H460) was > 100 µM (inactive) and the GI50 (SK-MEL-5) was > 100 µM (inactive). The GI50 (RXF 393) was > 100 µM (inactive), the GI50 (SK-MEL-28) was > 100 µM (inactive) and the GI50 (EKVX) was > 100 µM (inactive). For the same compound, the GI50 (U-251) was > 100 µM (inactive), the GI50 (HCT-116) was > 100 µM (inactive) and the GI50 (SF-268) was > 100 µM (inactive). The GI50 (MCF7) was > 100 µM (inactive), the GI50 (K562) was > 100 µM (inactive) and the GI50 (MDA-N) was > 100 µM (inactive). The GI50 (TK-10) was 34.4 µM (inactive), the GI50 (RPMI-8226) was > 100 µM (inactive) and the GI50 (BT-549) was > 100 µM (inactive). For the same compound, the GI50 (UACC-62) was > 100 µM (inactive), the GI50 (NCI-H226) was > 100 µM (inactive) and the GI50 (HT-29) was > 100 µM (inactive). For the same compound, the GI50 (OVCAR-5) was > 100 µM (inactive), the GI50 (HOP-92) was > 100 µM (inactive) and the GI50 (HCT-15) was > 100 µM. The GI50 (MOLT-4) was > 100 µM (inactive) and the GI50 (SF-295) was > 100 µM (inactive).
